Source: the supplement of paper PMC8149375

Experiments:
Conditions in all cases: treatment: drug alone; 5 days
SN12C [1] = experiment: GI50, drug alone; higher = less potent
Method: (§1)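 Primary HTS: 8 RCC cell lines treated with 8 doses (up to 10 uM) of each library drug alone for 5 days; viability read by CellTiter-Glo and normalised to DMSO. GI50 was fitted with XLfit (4-parameter), AUC is the area under the dose-response curve, and minimum viability is the lowest fraction of DMSO viability across doses.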

769-P [2] = experiment: GI50, drug alone; higher = less potent
Method: as §1

TK-10 [3] = experiment: GI50, drug alone; higher = less potent
Method: as §1

ACHN [4] = experiment: GI50, drug alone; higher = less potent
Method: as §1

786-O [5] = experiment: GI50, drug alone; higher = less potent
Method: as §1

UO-31 [6] = experiment: GI50, drug alone; higher = less potent
Method: as §1

CAKI-1 [7] = experiment: GI50, drug alone; higher = less potent
Method: as §1

A498 [8] = experiment: GI50, drug alone; higher = less potent
Method: as §1

SN12C [9] = experiment: minimum viability across doses, drug alone, relative to DMSO (fraction); higher = less growth inhibition
Method: as §1

769-P [10] = experiment: as above
Method: as §1

TK-10 [11] = experiment: as above
Method: as §1

ACHN [12] = experiment: as above
Method: as §1

786-O [13] = experiment: as above
Method: as §1

UO-31 [14] = experiment: as above
Method: as §1

CAKI-1 [15] = experiment: as above
Method: as §1

A498 [16] = experiment: as above
Method: as §1

SN12C [17] = experiment: AUC of dose-response viability curve, drug alone (arbitrary (AUC of normalised viability)); higher = less growth inhibition
Method: as §1

769-P [18] = experiment: as above
Method: as §1

TK-10 [19] = experiment: as above
Method: as §1

ACHN [20] = experiment: as above
Method: as §1

786-O [21] = experiment: as above
Method: as §1

UO-31 [22] = experiment: as above
Method: as §1

CAKI-1 [23] = experiment: as above
Method: as §1

A498 [24] = experiment: as above
Method: as §1

SMILES | GI50, drug alone (SN12C [1]) [µM] | GI50, drug alone (769-P [2]) [µM] | GI50, drug alone (TK-10 [3]) [µM] | GI50, drug alone (ACHN [4]) [µM] | GI50, drug alone (786-O [5]) [µM] | GI50, drug alone (UO-31 [6]) [µM] | GI50, drug alone (CAKI-1 [7]) [µM] | GI50, drug alone (A498 [8]) [µM] | minimum viability across doses (SN12C [9]) | minimum viability across doses (769-P [10]) | minimum viability across doses (TK-10 [11]) | minimum viability across doses (ACHN [12]) | minimum viability across doses (786-O [13]) | minimum viability across doses (UO-31 [14]) | minimum viability across doses (CAKI-1 [15]) | minimum viability across doses (A498 [16]) | AUC of dose-response viability curve (SN12C [17]) | AUC of dose-response viability curve (769-P [18]) | AUC of dose-response viability curve (TK-10 [19]) | AUC of dose-response viability curve (ACHN [20]) | AUC of dose-response viability curve (786-O [21]) | AUC of dose-response viability curve (UO-31 [22]) | AUC of dose-response viability curve (CAKI-1 [23]) | AUC of dose-response viability curve (A498 [24])
Cc1cnc(Nc2ccc(OCCN3CCCC3)cc2)nc1Nc1cccc(S(=O)(=O)NC(C)(C)C)c1 | 2.31 | 3.4 | 0.758 | 0.662 | 1.9 | 2.74 | 1.03 | 5.64 | 0.00707 | 0.0319 | 0.00422 | 0.00347 | 0.00721 | 0.013 | 0.00962 | 0.0772 | 2.71 | 3.09 | 2.19 | 2.25 | 2.76 | 3.79 | 2.54 | 3.49
Cc1cccc(-c2nc(C(C)(C)C)[nH]c2-c2ccc3nccnc3c2)n1 | 5.55 | > 10 | > 10 | > 10 | > 10 | > 10 | > 10 | 9.45 | 0.21 | 0.795 | 0.676 | 0.87 | 0.589 | 0.569 | 0.603 | 0.302 | 3.02 | 3.25 | 2.9 | 3.38 | 2.63 | 5.79 | 3.35 | 3.88
Cc1ccc(NC(=O)c2cccc(N(C)C)c2)cc1NC(=O)c1ccc(O)cc1 | > 10 | > 10 | > 10 | > 10 | > 10 | > 10 | > 10 | > 10 | 0.845 | 0.92 | 0.677 | 0.816 | 0.535 | 0.895 | 0.984 | 0.864 | 3.31 | 3.39 | 2.59 | 3.32 | 2.5 | 4.13 | 3.64 | 4.56
Cc1[nH]c(/C=C2/C(=O)Nc3ccc(S(=O)(=O)N(C)c4cccc(Cl)c4)cc32)c(C)c1C(=O)N1CCN(C)CC1 | 8.02 | > 10 | > 10 | 0.0547 | 5.22 | > 10 | 8.22 | > 10 | 0.412 | 0.763 | 0.753 | 0.247 | 0.265 | 1.15 | 0.425 | 0.916 | 3.01 | 3.4 | 3.36 | 2.06 | 2.76 | 4.97 | 3.3 | 3.89
CC(C)(C)c1cnc(CSc2cnc(NC(=O)C3CCNCC3)s2)o1 | 0.149 | 1.44 | 0.501 | 0.258 | 0.134 | 0.269 | 0.558 | 0.147 | 0.012 | 0.0214 | 0.156 | 0.00527 | 0.0038 | 0.0096 | 0.0689 | 0.00845 | 1.69 | 2.51 | 2.22 | 1.76 | 1.5 | 1.87 | 2.39 | 1.58
